# Source: publication PMC5218480 (PLoS ONE, 2017)
# System: MV-4-11 cells
# Assay: Gene expression microarray analysis (Affymetrix PrimeView) and GSEA
# Type: cell-based, human
# Set-up: RFU PODN (11730768_x_at) / Fold change /veh PODN (11730768_x_at) / RFU LINC00158 (11744669_a_at) / Fold change /veh LINC00158 (11744669_a_at) / RFU DUSP10 (11751237_a_at) / Fold change /veh DUSP10 (11751237_a_at) / RFU ID3 (11757404_x_at) / Fold change /veh ID3 (11757404_x_at) / RFU PLEKHG5 (11737974_s_at) / Fold change /veh PLEKHG5 (11737974_s_at) / RFU LRRC4B (11730491_at) / Fold change /veh LRRC4B (11730491_at) / RFU GIMAP4 (11747438_a_at) / Fold change /veh GIMAP4 (11747438_a_at) / RFU KRT8 (11758183_x_at) / Fold change /veh KRT8 (11758183_x_at) / RFU CNN1 (11734310_a_at) / Fold change /veh CNN1 (11734310_a_at) / RFU VPS37D (11726825_at) / Fold change /veh VPS37D (11726825_at) / RFU C10orf10 (11716522_x_at) / Fold change /veh C10orf10 (11716522_x_at) / RFU KIR2DL2 /// KIR2DL4 /// KIR2DL5A /// KIR2DL5B /// KIR2DS1 /// KIR2DS2 /// KIR2DS3 /// KIR2DS4 /// KIR3DL3 /// KIR3DL3 /// KIR3DS1 (11738374_at) / Fold change /veh KIR2DL2 /// KIR2DL4 /// KIR2DL5A /// KIR2DL5B /// KIR2DS1 /// KIR2DS2 /// KIR2DS3 /// KIR2DS4 /// KIR3DL3 /// KIR3DL3 /// KIR3DS1 (11738374_at) / RFU C1QL1 (11718748_at) / Fold change /veh C1QL1 (11718748_at) / RFU TMPRSS4 (11747572_a_at) / Fold change /veh TMPRSS4 (11747572_a_at) / RFU HAMP (11756126_x_at) / Fold change /veh HAMP (11756126_x_at) / RFU RNFT2 (11725882_a_at) / Fold change /veh RNFT2 (11725882_a_at) / RFU NR4A2 (11747474_a_at) / Fold change /veh NR4A2 (11747474_a_at) / RFU ABCC12 (11746883_a_at) / Fold change /veh ABCC12 (11746883_a_at) / RFU TMEM136 (11760407_x_at) / Fold change /veh TMEM136 (11760407_x_at) / RFU CLDN22 /// WWC2 (11732394_at) / Fold change /veh CLDN22 /// WWC2 (11732394_at) / RFU HLA-DPB1 (11760878_x_at) / Fold change /veh HLA-DPB1 (11760878_x_at) / RFU SPINT1 (11716480_a_at) / Fold change /veh SPINT1 (11716480_a_at) / RFU GAP43 (11754022_s_at) / Fold change /veh GAP43 (11754022_s_at) / RFU A4GNT (11735810_at) / Fold change /veh A4GNT (11735810_at) / RFU PRB3 (11715151_x_at) / Fold change /veh PRB3 (11715151_x_at) / RFU TUBB4B (11761932_at) / Fold change /veh TUBB4B (11761932_at) / RFU CAPN14 (11732068_a_at) / Fold change /veh CAPN14 (11732068_a_at) / RFU TMCC2 (11721928_a_at) / Fold change /veh TMCC2 (11721928_a_at) / RFU IRGQ (11745062_a_at) / Fold change /veh IRGQ (11745062_a_at) / RFU FAM174B (11720279_a_at) / Fold change /veh FAM174B (11720279_a_at) / RFU TMPRSS4 (11748680_a_at) / Fold change /veh TMPRSS4 (11748680_a_at) / RFU FAM212B (11763350_a_at) / Fold change /veh FAM212B (11763350_a_at) / RFU PLEKHG5 (11743358_a_at) / Fold change /veh PLEKHG5 (11743358_a_at) / RFU ZSCAN30 (11745921_a_at) / Fold change /veh ZSCAN30 (11745921_a_at) / RFU CMKLR1 (11741424_a_at) / Fold change /veh CMKLR1 (11741424_a_at) / RFU LOC101060620 /// MAPK8IP1 (11723275_at) / Fold change /veh LOC101060620 /// MAPK8IP1 (11723275_at) / RFU SPTSSB (11747773_x_at) / Fold change /veh SPTSSB (11747773_x_at) / RFU PRSS12 (11739890_at) / Fold change /veh PRSS12 (11739890_at) / RFU BIN1 (11741810_x_at) / Fold change /veh BIN1 (11741810_x_at) / RFU WNT11 (11732464_a_at) / Fold change /veh WNT11 (11732464_a_at) / RFU C10orf10 (11716521_a_at) / Fold change /veh C10orf10 (11716521_a_at) / RFU C5orf56 (11738089_at) / Fold change /veh C5orf56 (11738089_at) / RFU CYB561 (11721691_x_at) / Fold change /veh CYB561 (11721691_x_at) / RFU ANKRD19P (11752326_a_at) / Fold change /veh ANKRD19P (11752326_a_at) / RFU OR2T12 /// OR2T33 /// OR2T8 (11738714_s_at) / Fold change /veh OR2T12 /// OR2T33 /// OR2T8 (11738714_s_at) / RFU VCAN (11748164_a_at) / Fold change /veh VCAN (11748164_a_at) / RFU JSRP1 (11732532_at) / Fold change /veh JSRP1 (11732532_at) / RFU KRTAP10-11 (11738290_x_at) / Fold change /veh KRTAP10-11 (11738290_x_at) / RFU MYO3A (11730013_a_at) / Fold change /veh MYO3A (11730013_a_at) / RFU EBF3 (11725865_a_at) / Fold change /veh EBF3 (11725865_a_at) / RFU CAMK2N1 (11719241_x_at) / Fold change /veh CAMK2N1 (11719241_x_at) / RFU C5orf56 (11738088_a_at) / Fold change /veh C5orf56 (11738088_a_at) / RFU OLFML3 (11715873_a_at) / Fold change /veh OLFML3 (11715873_a_at) / RFU LOC100653217 /// NTM (11731650_a_at) / Fold change /veh LOC100653217 /// NTM (11731650_a_at) / RFU MAPK11 (11762145_a_at) / Fold change /veh MAPK11 (11762145_a_at) / RFU FIZ1 (11724087_x_at) / Fold change /veh FIZ1 (11724087_x_at) / RFU OASL (11726364_x_at) / Fold change /veh OASL (11726364_x_at) / RFU SOX15 (11748057_x_at) / Fold change /veh SOX15 (11748057_x_at) / RFU CD79A (11719716_a_at) / Fold change /veh CD79A (11719716_a_at) / RFU HIST1H1D (11736915_at) / Fold change /veh HIST1H1D (11736915_at) / RFU CASKIN2 (11723855_a_at) / Fold change /veh CASKIN2 (11723855_a_at) / RFU LOC730098 (11760151_x_at) / Fold change /veh LOC730098 (11760151_x_at) / RFU OR4N2 (11742367_at) / Fold change /veh OR4N2 (11742367_at) / RFU PRRT2 (11749266_a_at) / Fold change /veh PRRT2 (11749266_a_at) / RFU SNX32 (11753110_a_at) / Fold change /veh SNX32 (11753110_a_at) / RFU CDHR5 (11726645_a_at) / Fold change /veh CDHR5 (11726645_a_at) / RFU RCAN1 (11760418_a_at) / Fold change /veh RCAN1 (11760418_a_at) / RFU FAM167A (11723789_a_at) / Fold change /veh FAM167A (11723789_a_at) / RFU FAM26E (11764081_at) / Fold change /veh FAM26E (11764081_at) / RFU ISYNA1 (11749810_s_at) / Fold change /veh ISYNA1 (11749810_s_at) / RFU ACY1 (11761880_at) / Fold change /veh ACY1 (11761880_at) / RFU 11764098_at / Fold change /veh 11764098_at / RFU SAMD14 (11745864_x_at) / Fold change /veh SAMD14 (11745864_x_at) / RFU NPB (11741838_a_at) / Fold change /veh NPB (11741838_a_at) / RFU TMPRSS6 (11731388_a_at) / Fold change /veh TMPRSS6 (11731388_a_at) / RFU KRTAP10-2 (11738614_at) / Fold change /veh KRTAP10-2 (11738614_at) / RFU ARHGAP8 /// PRR5-ARHGAP8 (11727945_x_at) / Fold change /veh ARHGAP8 /// PRR5-ARHGAP8 (11727945_x_at) / RFU KRTAP5-7 /// NADSYN1 (11734609_at) / Fold change /veh KRTAP5-7 /// NADSYN1 (11734609_at) / RFU RASL12 (11751679_a_at) / Fold change /veh RASL12 (11751679_a_at) / RFU CDKN2B (11736163_a_at) / Fold change /veh CDKN2B (11736163_a_at) / RFU PRF1 (11729649_at) / Fold change /veh PRF1 (11729649_at) / RFU, ZNF638 /// ZNF638-IT1 / Fold change vs veh, ZNF638 /// ZNF638-IT1 / RFU, PANK3 / Fold change vs veh, PANK3 / RFU, SH3YL1 / Fold change vs veh, SH3YL1 / RFU, ZEB2 / Fold change vs veh, ZEB2 / RFU, NRIP1 / Fold change vs veh, NRIP1 / RFU, PTTG1IP / Fold change vs veh, PTTG1IP / RFU, CAPN2 / Fold change vs veh, CAPN2 / RFU, MED14 / Fold change vs veh, MED14 / RFU, SNORA58 / Fold change vs veh, SNORA58 / RFU, C1orf63 / Fold change vs veh, C1orf63 / RFU, LRRFIP1 / Fold change vs veh, LRRFIP1 / RFU, NDUFAF7 / Fold change vs veh, NDUFAF7 / RFU, SLC12A2 / Fold change vs veh, SLC12A2 / RFU, IBTK / Fold change vs veh, IBTK / RFU, ESF1 / Fold change vs veh, ESF1 / Fold change vs veh, TMEM50B / RFU, TAOK1 / Fold change vs veh, TAOK1 / RFU, ACBD3 / Fold change vs veh, ACBD3 / RFU, TMA16 / Fold change vs veh, TMA16 / RFU, RWDD3 / Fold change vs veh, RWDD3 / RFU, BCAT1 / Fold change vs veh, BCAT1 / RFU, EDEM3 / Fold change vs veh, EDEM3 / RFU, TMEM33 / Fold change vs veh, TMEM33 / RFU, WDR75 / Fold change vs veh, WDR75 / RFU, AHCTF1 / Fold change vs veh, AHCTF1 / RFU, TFRC / Fold change vs veh, TFRC / RFU, ZDHHC17 / Fold change vs veh, ZDHHC17 / RFU, NOM1 / Fold change vs veh, NOM1 / RFU, ARL8B / Fold change vs veh, ARL8B / RFU, ZBTB11 / Fold change vs veh, ZBTB11 / RFU, TAMM41 / Fold change vs veh, TAMM41 / RFU, KIAA1704 /// LOC100996395 / Fold change vs veh, KIAA1704 /// LOC100996395 / RFU, ING1 / Fold change vs veh, ING1 / RFU, TRMT61B / Fold change vs veh, TRMT61B / RFU, FUBP3 / Fold change vs veh, FUBP3 / RFU, TP53 / Fold change vs veh, TP53 / RFU, TNKS2 / Fold change vs veh, TNKS2 / RFU, ZFP14 / Fold change vs veh, ZFP14 / RFU, ACTR2 / Fold change vs veh, ACTR2 / RFU, PPP3R1 / Fold change vs veh, PPP3R1 / RFU, PIK3R1 / Fold change vs veh, PIK3R1 / RFU, HNRNPA1 / Fold change vs veh, HNRNPA1 / RFU, RNF170 / Fold change vs veh, RNF170 / RFU, ZNF28 / Fold change vs veh, ZNF28 / RFU, RNGTT / Fold change vs veh, RNGTT / RFU, OGT / Fold change vs veh, OGT / RFU, BRD1 / Fold change vs veh, BRD1 / RFU, MARS / Fold change vs veh, MARS / RFU, ZNF655 / Fold change vs veh, ZNF655 / RFU, FAHD1 / Fold change vs veh, FAHD1 / RFU, BDP1 / Fold change vs veh, BDP1 / RFU, LRRCC1 / Fold change vs veh, LRRCC1 / RFU, ARID1A / Fold change vs veh, ARID1A / RFU, ZNF146 / Fold change vs veh, ZNF146 / RFU, ZNF330 / Fold change vs veh, ZNF330 / RFU, GPN3 / Fold change vs veh, GPN3 / RFU, C9orf123 / Fold change vs veh, C9orf123 / RFU, N4BP2L2 / Fold change vs veh, N4BP2L2 / RFU, ARFIP1 / Fold change vs veh, ARFIP1 / RFU, FAM179B / Fold change vs veh, FAM179B / RFU, BCL10 / Fold change vs veh, BCL10 / RFU, UHRF1BP1L / Fold change vs veh, UHRF1BP1L / RFU, BET1 / Fold change vs veh, BET1 / RFU, CNOT2 / Fold change vs veh, CNOT2 / RFU, ZNF268 / Fold change vs veh, ZNF268 / Fold change vs veh, ZNF507 / RFU, DGCR2 / Fold change vs veh, DGCR2 / RFU, WDSUB1 / Fold change vs veh, WDSUB1 / Fold change vs veh, HSP90B1 /// MIR3652 / RFU, ADSS / Fold change vs veh, ADSS / RFU, GK / Fold change vs veh, GK / RFU, ZNF148 / Fold change vs veh, ZNF148 / RFU, TAF9 / Fold change vs veh, TAF9 / RFU, SLC1A5 / Fold change vs veh, SLC1A5 / RFU, SLMO2 / Fold change vs veh, SLMO2 / RFU, ABCC4 / Fold change vs veh, ABCC4 / RFU, LOC101060439 /// RAP1B / Fold change vs veh, LOC101060439 /// RAP1B / RFU, RFX7 / Fold change vs veh, RFX7 / RFU, GTPBP10 / Fold change vs veh, GTPBP10 / RFU, CNEP1R1 / Fold change vs veh, CNEP1R1 / RFU, BIVM-ERCC5 /// ERCC5 / Fold change vs veh, BIVM-ERCC5 /// ERCC5 / RFU, ILF3 / Fold change vs veh, ILF3 / RFU 11762660_at / Fold change /veh 11762660_at / RFU VCAN (11757783_s_at) / Fold change /veh VCAN (11757783_s_at) / RFU DDX43 (11728927_at) / Fold change /veh DDX43 (11728927_at) / RFU KRT8 (11758188_x_at) / Fold change /veh KRT8 (11758188_x_at) / RFU NKD1 (11759106_at) / Fold change /veh NKD1 (11759106_at) / RFU SRD5A1 (11742802_a_at) / Fold change /veh SRD5A1 (11742802_a_at) / RFU TPSAB1 /// TPSB2 (11721975_s_at) / Fold change /veh TPSAB1 /// TPSB2 (11721975_s_at) / RFU GSTM3 (11746129_a_at) / Fold change /veh GSTM3 (11746129_a_at) / RFU IL23R (11737362_x_at) / Fold change /veh IL23R (11737362_x_at) / RFU TMEM51 (11727254_a_at) / Fold change /veh TMEM51 (11727254_a_at) / RFU PIWIL2 (11732686_x_at) / Fold change /veh PIWIL2 (11732686_x_at) / RFU ORM1 (11744905_x_at) / Fold change /veh ORM1 (11744905_x_at) / RFU CCDC152 (11743942_at) / Fold change /veh CCDC152 (11743942_at) / RFU ECM1 (11717891_a_at) / Fold change /veh ECM1 (11717891_a_at) / RFU IL23R (11748794_a_at) / Fold change /veh IL23R (11748794_a_at) / RFU TNFAIP8L3 (11732012_x_at) / Fold change /veh TNFAIP8L3 (11732012_x_at) / RFU MBOAT4 (11741988_at) / Fold change /veh MBOAT4 (11741988_at) / RFU 11764193_at / Fold change /veh 11764193_at / RFU TMEM53 (11763286_at) / Fold change /veh TMEM53 (11763286_at) / RFU MAGEB2 (11727129_at) / Fold change /veh MAGEB2 (11727129_at) / RFU TMEM200A (11744735_a_at) / Fold change /veh TMEM200A (11744735_a_at) / RFU CCDC152 (11751479_a_at) / Fold change /veh CCDC152 (11751479_a_at) / RFU FAM211A (11726209_a_at) / Fold change /veh FAM211A (11726209_a_at) / RFU RGS16 (11746705_a_at) / Fold change /veh RGS16 (11746705_a_at) / RFU VCAN (11755009_s_at) / Fold change /veh VCAN (11755009_s_at) / RFU RHOB (11743442_s_at) / Fold change /veh RHOB (11743442_s_at) / RFU RGS16 (11720943_a_at) / Fold change /veh RGS16 (11720943_a_at) / RFU RGS16 (11720944_at) / Fold change /veh RGS16 (11720944_at) / RFU, VPS4B / Fold change vs veh, VPS4B / RFU, CREB1 / Fold change vs veh, CREB1 / RFU, DNAJC13 / Fold change vs veh, DNAJC13 / RFU, GNAQ / Fold change vs veh, GNAQ / RFU, CDK5R1 / Fold change vs veh, CDK5R1 / RFU, ZRANB3 / Fold change vs veh, ZRANB3 / RFU, CUL4A / Fold change vs veh, CUL4A / RFU, CCNY / Fold change vs veh, CCNY / RFU, UFL1 / Fold change vs veh, UFL1 / RFU, COG3 / Fold change vs veh, COG3 / RFU, DIAPH2 / Fold change vs veh, DIAPH2 / RFU, SKA2 / Fold change vs veh, SKA2 / RFU, AFF3 / Fold change vs veh, AFF3 / RFU, LMF1 / Fold change vs veh, LMF1 / RFU, IPO11 / Fold change vs veh, IPO11 / RFU, DFFB / Fold change vs veh, DFFB / RFU, FOXP1 / Fold change vs veh, FOXP1 / RFU, CARD8 / Fold change vs veh, CARD8 / RFU, STRN3 / Fold change vs veh, STRN3 / RFU, ADK / Fold change vs veh, ADK / RFU, RASSF2 / Fold change vs veh, RASSF2 / RFU, WIPF1 / Fold change vs veh, WIPF1 / RFU, LARP1B / Fold change vs veh, LARP1B / RFU, RASA1 / Fold change vs veh, RASA1 / RFU, RB1 / Fold change vs veh, RB1 / RFU, PPFIA1 / Fold change vs veh, PPFIA1 / RFU, MAT2A / Fold change vs veh, MAT2A / RFU, CCT5 / Fold change vs veh, CCT5 / RFU, WDR92 / Fold change vs veh, WDR92 / RFU, CUX1 / Fold change vs veh, CUX1 / RFU, TTC7A / Fold change vs veh, TTC7A / RFU, TMEM135 / Fold change vs veh, TMEM135 / RFU, DEPTOR / Fold change vs veh, DEPTOR / RFU, CPM / Fold change vs veh, CPM / RFU, DNAJB6 / Fold change vs veh, DNAJB6 / RFU, CACNA2D3 / Fold change vs veh, CACNA2D3 / RFU, DTX4 / Fold change vs veh, DTX4 / RFU, TFCP2 / Fold change vs veh, TFCP2 / RFU, GMCL1 /// GMCL1P1 / Fold change vs veh, GMCL1 /// GMCL1P1 / RFU, AEBP2 / Fold change vs veh, AEBP2 / RFU, SNHG1 /// SNORD22 /// SNORD25 /// SNORD26 /// SNORD27 /// SNORD28 /// SNORD29 /// SNORD31 / Fold change vs veh, SNHG1 /// SNORD22 /// SNORD25 /// SNORD26 /// SNORD27 /// SNORD28 /// SNORD29 /// SNORD31 / Fold change (Aza/veh), C12orf56 (ProbeSet 11735607_a_at) / Fold change (ACY-1035/veh), C12orf56 (ProbeSet 11735607_a_at) / Fold change (Aza/veh), FGFR1OP (ProbeSet 11751329_s_at) / Fold change (ACY-1035/veh), FGFR1OP (ProbeSet 11751329_s_at) / Fold change (Aza/veh), VPS36 (ProbeSet 11739960_a_at) / Fold change (ACY-1035/veh), VPS36 (ProbeSet 11739960_a_at) / RFU SYPL1 (11715823_x_at) / Fold change /veh SYPL1 (11715823_x_at) / RFU IGFBP7 (11715501_s_at) / Fold change /veh IGFBP7 (11715501_s_at) / RFU REEP3 (11722064_at) / Fold change /veh REEP3 (11722064_at) / RFU IGLL1 (11728026_x_at) / Fold change /veh IGLL1 (11728026_x_at): dose or concentration left out as unconfirmed
# Settings: ProbeSet 11722302_a_at; LIST B
structure (smiles),measurement,value
Nc1ncn([C@@H]2O[C@H](CO)[C@@H](O)[C@H]2O)c(=O)n1 [azacitidine],"RFU, LRRFIP1",130.71 RFU
